Here are results for five compounds from publication PMC7344389, “Discovery of Anti-Amoebic Inhibitors from Screening the MMV Pandemic Response Box on Balamuthia mandrillaris, Naegleria fowleri, and Acanthamoeba castellanii” (Pathogens, 2020).

For assay [1], the system named is Balamuthia mandrillaris trophozoites. The experiment in a line: CellTiter-Glo 2.0 trophocidal assay, B. mandrillaris. To be noted: for IC50: 72 h, CTG method, duplicate twofold serial dilutions from 10 µM, mean ± SD; for Selectivity Index (A549 IC50/B. mandrillaris IC50): SI = (IC50 A549)/(IC50 Amoeba). The assay is classed as cell-based. The procedure:
Pathogenic Balamuthia mandrillaris (CDC:[…]; American Type Culture Collection (ATCC) 50209), a GAE isolate, isolated from a pregnant baboon at the San Diego Zoo in 1986 was donated by Luis Fernando […] University, Mexico [43]. Trophozoites were routinely grown axenically in Balamuthia mandrillaris Itson (BMI) media at 37 °C, 5% CO2 in vented 75 cm^2 tissue culture flasks (Olympus, El Cajon, CA, USA), until the cells were 80-90% confluent. For sub-culturing, 0.25% Trypsin-EDTA (Gibco, Gaithersburg, MD, USA) cell detachment reagent was used to detach the cells from the culture flasks. The cells were collected by centrifugation at 4000 rpm at 4 °C. Complete BMI media is produced by the addition of 10% fetal bovine serum (FBS) and 125 μg of penicillin/streptomycin antibiotics. The trophocidal activity of compounds was assessed using the CellTiter-Glo 2.0 luminescent viability assay (Promega, Madison, WI, USA), as previously described. Trophozoites were routinely cultured as described above and only logarithmic trophozoites were used. […] Inhibitors were assessed for percent inhibition using the criteria of ≤33% growth inhibition (no inhibition), 33-67% growth inhibition (moderate inhibition), and ≥67% growth inhibition (strong inhibition). […] We used this process to reduce the number of potential false positives. […] All assays were incubated at each of the parasites' representative growth temperatures, described above, for 72 h. At the 72 h time point, 25 μL of CellTiter-Glo 2.0 reagent was added to all wells of the 96-well plates using the Biomek NX^P automated workstation. The plates were protected from light and contents were mixed using an orbital shaker at 300 rpm at room temperature for 2 min to induce cell lysis. After shaking, the plates were equilibrated at room temperature for 10 min to stabilize the luminescent signal. The adenosine triphosphate (ATP) luminescent signal (relative light units; RLUs) was measured at 490 nm with a SpectraMax I3X plate reader (Molecular Devices, Sunnyvale, CA, USA). Drug inhibitory concentration (IC50) curves were generated using total ATP RLUs, where controls were calculated as the average of replicates using the Levenberg-Marquardt algorithm, using DMSO as the normalization control, as defined in Collaborative Drug Discovery Inc. (CDD) Vault (Burlingame, CA, USA). Values reported are from a minimum of two biological replicates with standard deviations.

The subject of assay [2] is Acanthamoeba castellanii trophozoites. The experiment in a line: CellTiter-Glo 2.0 trophocidal assay, A. castellanii. To be noted: for IC50: CTG method, 72 h, duplicate twofold serial dilutions from 10 µM, mean ± SD; for Selectivity Index (A549 IC50/A. castellanii IC50): SI = (IC50 A549)/(IC50 Amoeba); for potency against A. castellanii, in words: dose-response, CTG. The assay is classed as cell-based. The procedure: This isolate was also purchased from ATCC. Trophozoites were routinely grown axenically at 27 °C in Protease Peptone-Glucose Media (PG) in non-vented 75 cm^2 tissue culture flasks (Olympus, El Cajon, CA, USA), until the cells were 80–90% confluent. For sub-culturing, cells were mechanically harvested to detach the cells from the culture flasks. The cells were collected by centrifugation at 4000 rpm at 4 °C.
The trophocidal activity of compounds was assessed using the CellTiter-Glo 2.0 luminescent viability assay (Promega, Madison, WI, USA), as previously described. Trophozoites were routinely cultured as described above and only logarithmic trophozoites were used. […] Initially all compounds were assessed in a single-point drug screen at 10 and 1 μM, as previously described. […] We used this process to reduce the number of potential false positives. Drugs were cherry-picked, dissolved in the media specific to each parasite, and assessed in twofold serial dilutions from the highest concentration of 10 μM. All assays were incubated at each of the parasites’ representative growth temperatures, described above, for 72 h. At the 72 h time point, 25 μL of CellTiter-Glo 2.0 reagent was added to all wells of the 96-well plates using the Biomek NX^P automated workstation. The plates were protected from light and contents were mixed using an orbital shaker at 300 rpm at room temperature for 2 min to induce cell lysis. After shaking, the plates were equilibrated at room temperature for 10 min to stabilize the luminescent signal. The adenosine triphosphate (ATP) luminescent signal (relative light units; RLUs) was measured at 490 nm with a SpectraMax I3X plate reader (Molecular Devices, Sunnyvale, CA, USA). Drug inhibitory concentration (IC50) curves were generated using total ATP RLUs, where controls were calculated as the average of replicates using the Levenberg–Marquardt algorithm, using DMSO as the normalization control, as defined in Collaborative Drug Discovery Inc. (CDD) Vault (Burlingame, CA, USA). Values reported are from a minimum of two biological replicates with standard deviations.
In general terms: ATP-based viability assays read luminescence as a measure of living cells.

What is called IC50 is the point on the concentration scale where inhibition reaches its midpoint. Turning to `CN(Cc1ccc(C(C)(C)C)cc1)Cc1cccc2ccccc12` [Butenafine], the IC50 in assay [1] (Balamuthia mandrillaris) was more than 10 µM; in assay [2], 1.97 ± 1.76 µM; in assay [2] (listed as butenafine), not above 10 µM. Further, in assay [2], the “Selectivity Index (A549 IC50/A. castellanii IC50)” value is not below 5.08.

With `CC(=O)Oc1ccccc1C(=O)Nc1ncc([N+](=O)[O-])s1` [Nitazoxanide], the IC50 in assay [1] (Balamuthia mandrillaris) was not above 10 µM; in assay [1], 8.6 ± 1.98 µM; in assay [2] (Acanthamoeba castellanii), more than 10 µM. In assay [1], the “Selectivity Index (A549 IC50/B. mandrillaris IC50)” value is listed as not below 1.16.

`Cc1[nH]c2ccccc2c1CCNCc1ccc(/C=C/C(=O)NO)cc1` [Panobinostat]: the IC50 is 0.39 ± 0.04 µM in assay [1] (Balamuthia mandrillaris) and more than 10 µM in assay [2] (Acanthamoeba castellanii). The “Selectivity Index (A549 IC50/B. mandrillaris IC50)” value in assay [1] was less than 0.79. In assay [1] (dose-response, CTG), the “potency against B. mandrillaris, in words” value was “nanomolar potency”.

With `C[C@@H](c1nc(-c2ccc(C#N)cc2)cs1)[C@](O)(Cn1cncn1)c1ccc(F)cc1F` [Ravuconazole], the IC50 was more than 10 µM in assay [1] (Balamuthia mandrillaris) and 0.02 ± 0.01 µM in assay [2] (Acanthamoeba castellanii). Moreover, the “Selectivity Index (A549 IC50/A. castellanii IC50)” value is reported as not below 625 in assay [2] and not below 10 in assay [2] (listed as ravuconazole). The “potency against A. castellanii, in words” value in assay [2] is on record as “nanomolar potency”.

Take `CN(C/C=C/C#CC(C)(C)C)Cc1cccc2ccccc12` [Terbinafine]: the figures for the half-inhibitory concentration (IC50) in assay [1] (Balamuthia mandrillaris) and in assay [2] (Acanthamoeba castellanii) were more than 10 µM and 0.56 ± 0.28 µM, respectively. Besides, the results for the “Selectivity Index (A549 IC50/A. castellanii IC50)” value in assay [2] and in assay [2] (listed as terbinafine) were not below 18 and not below 10, respectively. For the same compound, the “potency against A. castellanii, in words” value in assay [2] was “nanomolar potency”.
